What was measured:
PC-12 = experiment: Neuroprotective effect against H2O2-induced rat PC12 cell injury assessed as cell viability at 10 uM incubated for 2 hrs prior to H2O2 challenge measured after 24 hrs by MTT assay (reference value: 57.6%); format: functional; details: read-out: Activity
Acetylcholinesterase = molecular target: T1, Acetylcholinesterase (Rattus norvegicus, UniProt P37136); experiment: Inhibition of rat cortex AChE using acetylthiocholine iodide as substrate after 15 mins by Ellman method
T1 sequence (P37136 whole entry): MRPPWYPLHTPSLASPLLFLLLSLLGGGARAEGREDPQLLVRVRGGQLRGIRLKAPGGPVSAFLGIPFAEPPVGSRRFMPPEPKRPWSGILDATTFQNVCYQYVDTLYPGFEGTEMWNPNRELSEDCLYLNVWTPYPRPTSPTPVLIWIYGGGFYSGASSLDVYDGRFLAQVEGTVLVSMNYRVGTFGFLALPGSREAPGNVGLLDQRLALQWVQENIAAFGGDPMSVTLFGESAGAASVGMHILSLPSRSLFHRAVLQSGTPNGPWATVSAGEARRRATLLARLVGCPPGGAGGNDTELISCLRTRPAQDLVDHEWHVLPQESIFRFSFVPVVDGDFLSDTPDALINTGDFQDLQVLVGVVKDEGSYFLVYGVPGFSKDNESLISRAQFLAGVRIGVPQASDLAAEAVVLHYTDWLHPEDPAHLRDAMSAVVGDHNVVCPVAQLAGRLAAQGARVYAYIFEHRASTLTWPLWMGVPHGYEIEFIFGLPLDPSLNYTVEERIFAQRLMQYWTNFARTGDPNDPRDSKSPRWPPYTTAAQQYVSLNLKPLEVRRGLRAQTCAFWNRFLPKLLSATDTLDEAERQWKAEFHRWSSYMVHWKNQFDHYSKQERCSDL

Rattus norvegicus = species: Rattus norvegicus; experiment: Selectivity index, ratio of IC50 for rat serum BuChE to IC50 for rat cortex AChE; format: cell-free
[1] = Antioxidant activity assessed as trolox equivalent of […]-induced radical scavenging activity by ORAC-FL method; format: physicochemical
[2] = Inhibition of rat serum BuChE using butyrylthiocholine iodide as substrate after 15 mins by Ellman method; format: cell-free

SMILES | viability at 10 µM (PC-12) [%] | IC50 (Acetylcholinesterase) [µM] | Ratio IC50 (Rattus norvegicus) | Activity [1] | IC50 [2] [µM]
COc1cc2oc(-c3cccc(OC(=O)N4CCN(Cc5ccccc5)CC4)c3)cc(=O)c2c(O)c1OC | 80.3 | 51.7 | 0.3 | 1.3 | 15.7
COc1cc2oc(-c3ccc(OC(=O)N4CCCCC4)cc3)cc(=O)c2c(O)c1OC | 79.6 | 17.8 | > 5.6 | 1.1 | > 100
COc1cc2oc(-c3ccc(OC(=O)N(C)C)cc3)cc(=O)c2c(OC)c1OC | 73.5 | 8.24 | 0.9 | 0.32 | 7.3
COc1cc2oc(-c3cccc(OC(=O)N(C(C)C)C(C)C)c3)cc(=O)c2c(OC)c1OC |  | 87.5 | > 1.1 | 0.3 | > 100
COc1cc2oc(-c3ccc(OC(=O)N4CCOCC4)cc3)cc(=O)c2c(O)c1OC | 66.5 | > 100 |  | 0.9 | > 100
CCN(C)C(=O)Oc1ccc(-c2cc(=O)c3c(OC)c(OC)c(OC)cc3o2)cc1 | 75.1 | 1.54 | 4 | 0.34 | 6.2
COc1cc2oc(-c3cccc(OC(=O)N4CCN(Cc5ccccc5)CC4)c3)cc(=O)c2c(OC)c1OC |  | 87.1 | 0.1 | 0.34 | 7.1
COc1cc2oc(-c3ccc(O)cc3)cc(=O)c2c(O)c1OC [CIRSIMARITIN] |  | > 100 |  | 5.4 | > 100
CCN(C)C(=O)Oc1cccc(-c2cc(=O)c3c(OC)c(OC)c(OC)cc3o2)c1 | 70.8 | 7.37 | 5.2 | 0.32 | 38.1
COc1cc2oc(-c3cccc(OC(=O)N4CCCCC4)c3)cc(=O)c2c(O)c1OC |  | > 100 |  | 1.1 | > 100
COc1cc2oc(-c3cccc(OC(=O)N4CCN(C)CC4)c3)cc(=O)c2c(OC)c1OC | 82.1 | 31.2 | > 3.2 | 0.36 | > 100
COc1cc2oc(-c3cccc(O)c3)cc(=O)c2c(OC)c1OC |  | > 100 |  | 1.8 | > 100
COc1cc2oc(-c3ccc(OC(=O)N(C)C)cc3)cc(=O)c2c(O)c1OC | 76.7 | 17.3 | 3.6 | 1.2 | 61.5
CCN(CC)C(=O)Oc1cccc(-c2cc(=O)c3c(OC)c(OC)c(OC)cc3o2)c1 | 70.8 | 6.11 | 4.9 | 0.31 | 30.1
COc1cc2oc(-c3cccc(OC(=O)N4CCN(C)CC4)c3)cc(=O)c2c(O)c1OC |  | 23.3 | 2.9 | 1.2 | 68.2
COc1cc2oc(-c3cccc(O)c3)cc(=O)c2c(O)c1OC |  | > 100 |  | 3.7 | > 100
COc1cc2oc(-c3cccc(OC(=O)N(C)C)c3)cc(=O)c2c(O)c1OC |  | 25.7 | 0.9 | 1.2 | 23.6

SMILES | viability at 10 µM (PC-12) [%] | IC50 (Acetylcholinesterase) [µM] | Ratio IC50 (Rattus norvegicus) | Activity [1] | IC50 [2] [µM]
COc1cc2oc(-c3cccc(OC(=O)N4CCOCC4)c3)cc(=O)c2c(O)c1OC | 66.1 | > 100 |  | 1.2 | > 100
COc1cc2oc(-c3ccc(OC(=O)N4CCN(C)CC4)cc3)cc(=O)c2c(O)c1OC |  | 5 | > 20 | 1 | > 100
COc1cc2oc(-c3ccc(OC(=O)N(C(C)C)C(C)C)cc3)cc(=O)c2c(OC)c1OC |  | 13.7 | 2.8 | 0.33 | 38.2
COc1cc2oc(-c3ccc(OC(=O)N4CCN(C)CC4)cc3)cc(=O)c2c(OC)c1OC | 82.4 | 11.4 | 5.6 | 0.29 | 63.8
CCN(C)C(=O)Oc1ccc(-c2cc(=O)c3c(O)c(OC)c(OC)cc3o2)cc1 | 78.3 | 2.1 | 18.1 | 1.1 | 38.1
COc1cc2oc(-c3cccc(OC(=O)N4CCOCC4)c3)cc(=O)c2c(OC)c1OC |  | > 100 |  | 0.29 | > 100
COc1cc2oc(-c3cccc(OC(=O)N(C(C)C)C(C)C)c3)cc(=O)c2c(O)c1OC |  | 96.5 | > 1 | 1.1 | > 100
COc1cc2oc(-c3ccc(OC(=O)N4CCN(Cc5ccccc5)CC4)cc3)cc(=O)c2c(O)c1OC | 84.5 | 9.25 | > 10.8 | 0.9 | > 100
COc1cc2oc(-c3ccc(OC(=O)N4CCCCC4)cc3)cc(=O)c2c(OC)c1OC | 65.2 | 21.2 | 0.7 | 0.31 | 15.3
COc1cc2oc(-c3ccc(O)cc3)cc(=O)c2c(OC)c1OC |  | > 100 |  | 2.6 | > 100
COc1cc2oc(-c3cccc(OC(=O)N(C)C)c3)cc(=O)c2c(OC)c1OC | 69.3 | 37.3 | 0.8 | 0.28 | 28.3
COc1cc2oc(-c3ccc(OC(=O)N4CCOCC4)cc3)cc(=O)c2c(OC)c1OC |  | 68.3 | > 1.5 | 0.27 | > 100
COc1cc2oc(-c3cccc(OC(=O)N4CCCCC4)c3)cc(=O)c2c(OC)c1OC | 72.5 | 45.7 | 0.6 | 0.31 | 26.8
CCN(CC)C(=O)Oc1cccc(-c2cc(=O)c3c(O)c(OC)c(OC)cc3o2)c1 |  | 10.3 | 3.3 | 1.3 | 34.5
COc1cc2oc(-c3ccc(OC(=O)N(C(C)C)C(C)C)cc3)cc(=O)c2c(O)c1OC | 68.7 | > 100 |  | 1 | > 100
COc1cc2oc(-c3ccc(OC(=O)N4CCN(Cc5ccccc5)CC4)cc3)cc(=O)c2c(OC)c1OC | 81.9 | 1.04 | 35.8 | 0.32 | 37.2
CCN(C)C(=O)Oc1cccc(-c2cc(=O)c3c(O)c(OC)c(OC)cc3o2)c1 |  | 14.8 | > 6.8 | 0.9 | > 100

From ChEMBL document CHEMBL3399969, “Multifunctional scutellarin-rivastigmine hybrids with cholinergic, antioxidant, biometal chelating and neuroprotective properties for the treatment of Alzheimer's disease” (Bioorg Med Chem, 2015)
